Data published in ChEMBL document CHEMBL5226303, “GPR120/FFAR4 Pharmacology: Focus on Agonists in Type 2 Diabetes Mellitus Drug Discovery” (J Med Chem, 2021).
One block for each compound: values may come before it.

How the values were obtained:
DU-145 = assay: Antiproliferative activity against LPA-induced human DU-145 cells; assay type: functional, cell-based
[1] = target: T1, Free fatty acid receptor 4 (Homo sapiens, UniProt Q5NUL3); assay: Agonist activity at human GPR120 expressed in HEK293 cells assessed as calcium accumulation; assay type: cell-based
T1 sequence (Q5NUL3 whole entry): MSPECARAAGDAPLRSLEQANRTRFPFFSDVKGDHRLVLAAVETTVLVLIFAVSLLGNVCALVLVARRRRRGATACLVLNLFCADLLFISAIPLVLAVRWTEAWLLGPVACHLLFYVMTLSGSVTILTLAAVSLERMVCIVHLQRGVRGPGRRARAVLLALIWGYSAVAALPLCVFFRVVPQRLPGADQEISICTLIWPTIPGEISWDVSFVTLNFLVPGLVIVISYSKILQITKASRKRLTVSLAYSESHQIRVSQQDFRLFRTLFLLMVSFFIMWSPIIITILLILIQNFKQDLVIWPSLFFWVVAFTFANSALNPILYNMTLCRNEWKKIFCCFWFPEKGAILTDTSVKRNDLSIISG

[2] = target: T1, Free fatty acid receptor 4; assay: Agonist activity at human GPR120 expressed in HEK293 cells by beta-arrestin assay; assay type: cell-based
[3] = Agonist activity at FFA receptor (unknown origin); parameters: species or system Homo sapiens
[4] = target: T1, Free fatty acid receptor 4; assay: Agonist activity at human GPR120 expressed in CHO-K1 cells by beta-arrestin assay; assay type: cell-based

SMILES: CC/C=C\C/C=C\C/C=C\C/C=C\C/C=C\C/C=C\CCC(=O)O [DOCONEXENT]
- IC50 (DU-145): 73 nM

SMILES: C#Cc1cc(Oc2cccnc2)cc(N2Cc3ccccc3S2(=O)=O)c1
- EC50 [4]: 5.2 nM

The next lines start with the values.

- IC50 (DU-145): 5700 nM
SMILES: CC(C)=CCC/C(C)=C/CC/C(C)=C/Cc1c(O)cc(C)c(C(=O)O)c1O [GRIFOLIC ACID]

- EC50 [1]: 165 nM
- EC50 [2]: 125 nM
SMILES: OCCCc1c(F)cc(OCc2c(-c3ccc(Cl)cc3)csc2C(F)(F)F)cc1F

- pEC50 [3]: 5.16
SMILES: CCCCC/C=C\C/C=C\CCCCCCCC(=O)O [LINOLEIC ACID]
